Converted amounts (≈) assume the structure as drawn.
Assays:
[1] = Compound solubility in water; assay type: physicochemical
[2] = target: T1, glucocerebrosidase (Gcase) (Homo sapiens, UniProt P04062); assay: Glucocerebrosidase (Gcase) activation assay, 4-methylumbelliferyl-beta-D-glucopyranoside substrate, with saposin C; assay type: biochemical; details: for activation at 0.1 µM: 0.1 μM test compound, read-out: Percent Gcase Activation 0.1 μM Test Compound; for activation at 1 µM: 1 μM test compound, read-out: Percent Gcase Activation 1 μM Test Compound
T1 sequence (P04062 40-536): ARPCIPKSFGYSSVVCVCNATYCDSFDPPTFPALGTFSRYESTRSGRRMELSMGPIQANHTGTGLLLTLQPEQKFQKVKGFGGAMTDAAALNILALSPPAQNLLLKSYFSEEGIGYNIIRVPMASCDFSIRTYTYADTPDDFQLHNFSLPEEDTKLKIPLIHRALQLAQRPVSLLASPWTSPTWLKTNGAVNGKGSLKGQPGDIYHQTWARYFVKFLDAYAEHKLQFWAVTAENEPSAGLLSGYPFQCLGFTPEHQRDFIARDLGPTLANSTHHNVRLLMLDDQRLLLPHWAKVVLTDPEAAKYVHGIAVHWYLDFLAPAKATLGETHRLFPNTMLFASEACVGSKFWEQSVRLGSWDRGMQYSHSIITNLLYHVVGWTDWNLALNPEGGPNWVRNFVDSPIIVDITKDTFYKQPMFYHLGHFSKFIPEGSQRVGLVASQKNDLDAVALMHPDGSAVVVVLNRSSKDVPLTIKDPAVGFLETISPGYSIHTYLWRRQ
Protocol: The ability of exemplary compounds to activate glucocerebrosidase (Gcase) was measured.
A 484 μL aliquot of a 1.0 mg/mL solution of phosphatidylserine (PS) (Sigma P7769) in chloroform was evaporated under a stream of nitrogen for 1 hour. The lipid film was dissolved over 4 minutes of vigorous vortexing in 40 mL of 176 mM K2HPO4/50 mM citric acid (pH 4.7) containing 7.5 μL of triton X-100, resulting in a mixed micellar preparation with a composition of 0.32 mM triton and 0.37 mol % PS. 4-Methylumbelliferyl-beta-D-glucopyranoside (ACROS-337025000) was dissolved in the micellar solution to a final concentration of 2 mM for use as the reaction substrate.
Test compounds were diluted to the desired concentrations with dimethylsulfoxide (DMSO) from 10 mM stocks, and 0.41 μL of the DMSO compound mixture was added to 100 μL of micellar solution containing 10 nM GCase and 100 nM saposin C (Enzo ALX-201-262-C050). Pre-incubation was allowed to occur for 30 minutes at room temperature, after which the reaction was initiated by combining 25 μL of substrate solution with 25 μL of compound/GCase/saposin mixture. The reaction proceeded for 15 minutes at room temperature and was stopped by adding 150 μL of 1M glycine, pH 12.5. The endpoint of the reaction was monitored by measuring fluorescence intensity (excitation: 365 nm; emission: 440 nm) on a SpectraMax i3 instrument (Molecular Devices). Test compounds were screened at 1.0 and 0.1 μM final concentration, and subsequent 8-point dose response curves were obtained using 3-fold dilutions from a maximum final concentration of […].

| SMILES | solubility [1] | activation at 0.1 µM [2] | activation at 1 µM [2] |
| --- | --- | --- | --- |
| Cc1cc(-n2cncn2)nc2c(C(=O)NC(C)(C)C3CC3)ncn12 [III-68] | 27.3 µg/mL (≈ 83.9 µM) | < 10% | < 30% |
| Cc1cc(-c2ccccn2)nc2c(C(=O)NC(C3CC3)C(F)(F)F)ncn12 (stereo not drawn) [III-72] | 4.7 µg/mL (≈ 12.5 µM) | 10 to 20% | > 60% |
| Cc1cc(-c2ccc(Cl)nc2)nc2c(C(=O)N[C@@H](C)C3CC3)ncn12 [III-75] | 4.9 µg/mL (≈ 13.8 µM) | < 10% | 30 to 60% |
| Cc1cc(C2CCCOC2)nc2c(C(=O)NC(C)(C)C3CC3)ncn12 (stereo not drawn) [III-78] | 23.2 µg/mL (≈ 67.7 µM) | < 10% | < 30% |
| Cc1cc(-c2ccc(F)cc2)nc2c(C(=O)N[C@@H](C)C3CCC3)ncn12 [III-79] | 3 µg/mL (≈ 8.51 µM) | 10 to 20% | > 60% |
| Cc1cc(-c2ccc(F)cc2)nc2c(C(=O)NC(C)C3CCCO3)ncn12 (stereo not drawn) [III-80] | 14.5 µg/mL (≈ 39.4 µM) | < 10% | < 30% |
| Cc1cc(-c2ccc(F)c(F)c2)nc2c(C(=O)NC(C)C3CC3)ncn12 (stereo not drawn) [III-85] | 1.2 µg/mL (≈ 3.37 µM) | > 20% | > 60% |
| Cc1cc(-c2ccccc2)nc2c(C(=O)NC(C)C3CC3)ncn12 (stereo not drawn) [III-86] | 13.1 µg/mL (≈ 40.9 µM) | > 20% | > 60% |
| Cc1cc(-c2ccc(F)cc2)nc2c(C(=O)NC(C3CC3)C3CC3)ncn12 [III-87] | 2.2 µg/mL (≈ 6.04 µM) | > 20% | > 60% |
| Cc1cc(-c2ccc(F)cc2)nc2c(C(=O)NC(C)(C)C)ncn12 [III-88] | 2 µg/mL (≈ 6.13 µM) | < 10% | > 60% |
| CCNc1cc(C)n2cnc(C(=O)NC(c3ccc(F)cc3)C(F)(F)F)c2n1 (stereo not drawn) [III-90] | 2.2 µg/mL (≈ 5.56 µM) | > 20% | > 60% |
| Cc1cc(NC2CC2)nc2c(C(=O)NC(c3ccc(F)cc3)C(F)(F)F)ncn12 (stereo not drawn) [III-91] | 0.8 µg/mL (≈ 1.96 µM) | > 20% | > 60% |
| Cc1cc(N2CCCC(F)(F)C2)nc2c(C(=O)NC(C)(C)C3CC3)ncn12 [III-92] | 9.6 µg/mL (≈ 25.4 µM) | 10 to 20% | > 60% |
| Cc1cc(-c2cccc(F)c2)nc2c(C(=O)N[C@H](C)C3CC3)ncn12 [III-94] | 8.4 µg/mL (≈ 24.8 µM) | 10 to 20% | > 60% |
| Cc1cc(-c2ccccn2)nc2c(C(=O)N[C@H]3CC[C@H](OCC(C)C)CC3)ncn12 [III-96] | 6.6 µg/mL (≈ 16.2 µM) | < 10% | 30 to 60% |
| COc1cncc(-c2cc(C)n3cnc(C(=O)N[C@@H](C)C4CC4)c3n2)c1 [III-97] | 17.3 µg/mL (≈ 49.2 µM) | < 10% | 30 to 60% |
| COc1cccc(-c2cc(C)n3cnc(C(=O)N[C@@H](C)C4CC4)c3n2)n1 [III-98] | 5.2 µg/mL (≈ 14.8 µM) | 10 to 20% | > 60% |
| COc1cc(-c2cc(C)n3cnc(C(=O)N[C@@H](C)C4CC4)c3n2)ccn1 [III-99] | 25.6 µg/mL (≈ 72.8 µM) | < 10% | < 30% |
| COc1ccnc(-c2cc(C)n3cnc(C(=O)NC(C)C4CC4)c3n2)c1 (stereo not drawn) [III-100] | 7.2 µg/mL (≈ 20.5 µM) | < 10% | 30 to 60% |
| COCCOc1cccc(-c2cc(C)n3cnc(C(=O)N[C@@H](C)C4CC4)c3n2)c1 [III-101] | 16 µg/mL (≈ 40.6 µM) | 10 to 20% | > 60% |
| Cc1cc(C)n2cnc(C(=O)N[C@@H](C)C3CC4(CCC4)C3)c2n1 [III-102] | 12.1 µg/mL (≈ 38.7 µM) | < 10% | > 60% |
| Cc1cc(-c2cccc(Cl)n2)nc2c(C(=O)N[C@@H](C)C3CC3)ncn12 [III-103] | 3.8 µg/mL (≈ 10.7 µM) | < 10% | > 60% |
| Cc1cc(-c2cc(Cl)ccn2)nc2c(C(=O)N[C@@H](C)C3CC3)ncn12 [III-104] | 8 µg/mL (≈ 22.5 µM) | 10 to 20% | > 60% |
| Cc1cc(-c2cncc(F)c2)nc2c(C(=O)N[C@@H](C)C3CC3)ncn12 [III-105] | 24.9 µg/mL (≈ 73.4 µM) | < 10% | 30 to 60% |
| Cc1cc(-c2ccnc(Cl)c2)nc2c(C(=O)N[C@@H](C)C3CC3)ncn12 [III-106] | 12.8 µg/mL (≈ 36 µM) | < 10% | 30 to 60% |
| Cc1cc(-c2cnc(Cl)c(F)c2)nc2c(C(=O)N[C@@H](C)C3CC3)ncn12 [III-107] | 1.9 µg/mL (≈ 5.08 µM) | < 10% | 30 to 60% |
| Cc1cc(-c2ccc(F)c(Cl)n2)nc2c(C(=O)N[C@@H](C)C3CC3)ncn12 [III-108] | 14.5 µg/mL (≈ 38.8 µM) | < 10% | 30 to 60% |
| Cc1cc(-c2cccc(Cl)c2)nc2c(C(=O)N[C@@H](C)C3CC3)ncn12 [III-110] | 3.6 µg/mL (≈ 10.1 µM) | > 20% | > 60% |
| Cc1cc(-c2cc(F)cc(F)c2)nc2c(C(=O)N[C@@H](C)C3CC3)ncn12 [III-111] | 1.3 µg/mL (≈ 3.65 µM) | > 20% | > 60% |
| Cc1cc(-c2cc(F)ccc2F)nc2c(C(=O)N[C@@H](C)C3CC3)ncn12 [III-112] | 5.5 µg/mL (≈ 15.4 µM) | > 20% | > 60% |

Continued, values first:

| solubility [1] | activation at 0.1 µM [2] | activation at 1 µM [2] | SMILES |
| --- | --- | --- | --- |
| 3.5 µg/mL (≈ 8.07 µM) | > 20% | > 60% | CCCCO[C@H]1C[C@H]2CC[C@@H](C1)[C@H]2NC(=O)c1ncn2c(C)cc(-c3cccnc3)nc12 [III-63] |
| 32.2 µg/mL (≈ 79 µM) | < 10% | < 30% | Cc1cc(-c2cccnc2)nc2c(C(=O)N[C@H]3CC[C@H](OC(C)(C)C)CC3)ncn12 [III-64] |
| 15.4 µg/mL (≈ 39.1 µM) | < 10% | < 30% | CCCO[C@H]1CC[C@H](NC(=O)c2ncn3c(C)cc(-c4cccnc4)nc23)CC1 [III-65] |
| 16 µg/mL (≈ 39.3 µM) | < 10% | 30 to 60% | Cc1cc(-c2cccnc2)nc2c(C(=O)N[C@H]3CC[C@H](OCC(C)C)CC3)ncn12 [III-66] |
| 23.4 µg/mL (≈ 72.1 µM) | < 10% | < 30% | Cc1cc(-n2ccnc2)nc2c(C(=O)NC(C)(C)C3CC3)ncn12 [III-67] |
| 8.5 µg/mL (≈ 25.1 µM) | < 10% | < 30% | Cc1cc(-c2ccnn2C)nc2c(C(=O)NC(C)(C)C3CC3)ncn12 [III-69] |
| 10.5 µg/mL (≈ 32.4 µM) | < 10% | 30 to 60% | Cc1cc(-n2cccn2)nc2c(C(=O)NC(C)(C)C3CC3)ncn12 [III-70] |
| 22.5 µg/mL (≈ 59.9 µM) | < 10% | > 60% | Cc1cc(-c2cccnc2)nc2c(C(=O)NC(C3CC3)C(F)(F)F)ncn12 (stereo not drawn) [III-71] |
| 19.3 µg/mL (≈ 47.4 µM) | < 10% | < 30% | CO[C@H]1CC[C@H](C(C)(C)NC(=O)c2ncn3c(C)cc(-c4cccnc4)nc23)CC1 [III-73] |
| 19.3 µg/mL (≈ 47.4 µM) | < 10% | 30 to 60% | CO[C@H]1CC[C@@H](C(C)(C)NC(=O)c2ncn3c(C)cc(-c4cccnc4)nc23)CC1 [III-74] |
| 1.1 µg/mL (≈ 2.97 µM) | 10 to 20% | > 60% | Cc1cc(-c2ccc(Cl)nc2)nc2c(C(=O)NC(C)(C)C3CC3)ncn12 [III-76] |
| 22.8 µg/mL (≈ 67.2 µM) | < 10% | < 30% | Cc1cc(-c2cn(C)nn2)nc2c(C(=O)NC(C)(C)C3CC3)ncn12 [III-82] |
| 24.5 µg/mL (≈ 79.2 µM) | < 10% | < 30% | Cc1cc(-c2cccnc2)nc2c(C(=O)NC(C)(C)C)ncn12 [III-89] |
| 18.8 µg/mL (≈ 56.1 µM) | < 10% | < 30% | Cc1cc(-c2ccncc2)nc2c(C(=O)NC(C)(C)C3CC3)ncn12 [III-93] |
| 6.4 µg/mL (≈ 19 µM) | < 10% | < 30% | Cc1cc(-c2ncccn2)nc2c(C(=O)NC(C)(C)C3CC3)ncn12 [III-95] |
| 1.1 µg/mL (≈ 3.12 µM) | > 20% | > 60% | Cc1cc(-c2cccc(F)c2)nc2c(C(=O)NC(C)(C)C3CC3)ncn12 [III-109] |

Source: patent US9920061B2, “Imidazo[1,5-A]pyrimidinyl carboxamide compounds and their use in the treatment of medical disorders” (Lysosomal Therapeutics Inc., priority 2016, dated 2018)
